# Key:
# [1] = tested on: bleomycin-induced pulmonary fibrosis in mice; assay: Bleomycin-induced pulmonary fibrosis in mice; assay type: in vivo
# Description: Male C57BL/6J mice (6-8 weeks of age) were obtained from the National Laboratory Animal Center (Taipei, Taiwan). All experimental procedures using these mice were performed according to protocols approved by the Institutional Laboratory Animal Care and Use Committee of Cardinal Tien Hospital. Each mouse was housed in cages (IVC; individual ventilation cage), and given daily photoperiod for 12 hours. Room temperature was maintained at 22-25° C., and humidity was maintained at 60 to 70%. Ventilation rate was remained at 16-18 times/hour. Food and drinking water (Altromin 1326 mice feed, Altromin, Germany) was freely given. All operations were executed in accordance with the standards of animal experimental animal operation of law. Management and feeding of animals were in compliant with guidance for care and use of laboratory (NRC 1996) rule approach implementation.
# Pulmonary fibrosis was induced using bleomycin sulfate in male C57BL/6J mice (FIG. 1). The mice were intraperitoneally injected (IP) under anesthesia with Avertin (240 mg/Kg). On day 0 (n=20), a single dose of bleomycin (BLM) (1 mg=1000 IU, clinical level, Bleomycine Bellon, Sanofi-Aventis, France) was received in the mice (3.5 mg/kg) via intranasal instillation. The mice in the control group (n=10) were given saline only. On day 14 after intranasal BLM instillation, BLM treated mice were randomized into two groups receiving vehicle or 1-[4-chloro-3-(trifluoromethyl)phenyl]-3-[3-(4-cyanophenoxy)phenyl]urea until the end of the experiment. From day 14 to day 28, mice were administered intraperitoneally with 7.5 mg/kg/day of 1-[4-chloro-3-(trifluoromethyl)phenyl]-3-[3-(4-cyanophenoxy)phenyl]urea daily at a dose of 10 mL/kg body weight. The experimental time was 28 days and the 1-[4-chloro-3-(trifluoromethyl)phenyl]-3-[3-(4-cyanophenoxy)phenyl]urea compound was administered within 14 to 28 days.
# The paraffin embedded tissue array blocks were cut into 4-μm-thick sections for H&E staining. For each case, carcinoma type, cell differentiation, growth pattern, tumor cell nuclear morphology, metaplasia, calcification, necrosis, mitosis count, invasion status and other specific differentiations were re-checked by two pathologists Immunohistochemical (IHC) staining was performed using a Ventana BenchMark XT automated stainer (Ventana, Tucson, Ariz.). Briefly, 4-μm-thick sections were cut consecutively from formalin-fixed, paraffin-embedded tissue. These sections were then mounted on silanized slides and allowed to dry overnight at 37° C. After deparaffinization and rehydration, the slides were incubated with 3% hydrogen peroxide solution for 5 minutes. After being washed with the supplied buffer, the tissue sections were repaired for 40 minutes with ethylenediamine tetraacetic acid.
# Hydroxyproline analysis was performed using a hydroxyproline test kit following the manufacturer's instructions (Cell BioLabs, Inc., USA). Lung tissue was hydrolyzed in 12N HCl at 120° C. for 3 hours, and then washed and suspended in H2O. The tissue suspension was then mixed with chloramine-T at room temperature for 30 minutes. Then Ehrlich's reagent was added and reacted at 60° C. for 90 minutes. After that, the absorbance at 540 nm was measured.
# Mice lung collagen was measured in lung homogenate using a Sircol assay (Biocolor, UK) following the manufacturer's instructions. Briefly, lung tissue homogenates were mixed with Sircol dye and centrifuged. The precipitate was resuspended in NaOH and the absorbance at 550 nm was measured. The absorbance obtained is directly proportional to the concentration of the recently synthesized collagen.
# Whole-cell extracts were obtained via RIPA buffer (Millipore, USA) and protein concentrations were quantified via a BCA protein assay kit (Thermo Fisher Scientific, USA). 20 or 25 μg of protein was added to various percentages of SDS-sodium dodecyl sulfate-acrylamide gel and blotted onto a polyvinylidene fluoride (PVDF) membrane. […]
# [2] = tested on: mouse fibroblasts (NIH3T3 cell line); assay: Apoptosis analysis, NIH3T3 fibroblasts; assay type: cell-based
# Description: Murine NIH3T3 fibroblasts and human lung epithelial cells (A549 cells) were purchased from the Bioresource Collection and Research Center (Hsinchu, Taiwan). Cells were cultured in Dulbecco's modified eagle medium (DMEM) containing 10% fetal bovine serum (FBS), 100 μg/mL penicillin, 100 μg/mL streptomycin. Cells were cultured at 37° C. in a humidified atmosphere of 5% CO2 and passaged every 4 to 5 days at 1:4 ratios.
# The measurement of apoptotic cells was conducted by flow cytometry (sub-G1) and cell death detection enzyme-bound immunosorbent assay (ELISA) for cytoplasmic histone associated DNA fragments. The amount of formazan dye was quantified by measuring the absorbance at 570 nm using ELISA reader to calculate the optical density (OD) values. Statistical analysis was determined using Student's t-test, with P<0.05 considered significant.
# STAT3 cDNA (KIAA1524) was purchased from Addgene Platinum Corporation. After the transient transfection of STAT3, SHP-1, SHP-1(dN1) mutants and SHP-1(61A) mutant in mouse fibroblasts (NIH3T3 cell line) and human lung epithelial cells (A549 cell line), cells were reacted separately with the 1-[4-chloro-3-(trifluoromethyl)phenyl]-3-[3-(4-cyanophenoxy)phenyl]urea compound and subjected to the Western blotting process. Transfection was performed by X-tremeGENE HP Transfection Reagent (Roche, Germany) following the manufacturer's instructions. […]
# [3] = Western blot, bleomycin model after treatment, FIG. 6
compound,measurement,setting,value
N#Cc1ccc(Oc2cccc(NC(=O)Nc3ccc(Cl)c(C(F)(F)F)c3)c2)cc1 [1-[4-chloro-3-(trifluoromethyl)phenyl]-3-[3-(4-cyanophenoxy)phenyl]urea],tolerability (drug-related adverse events),"[1]; 7.5 mg/kg dose, daily, day 14 to day 28 after bleomycin",well tolerated
same,fibrin deposition (Masson's trichrome staining positive area),"[1]; 7.5 mg/kg/day, day 14 to 28, FIG. 3",significantly reduced
same,pathological changes of lung sections (hematoxylin-eosin staining),"[1]; 7.5 mg/kg/day, day 14 to 28, versus BLM group, FIG. 2",significantly improved
same,collagen content of mice lung,"[1]; Sircol assay, 7.5 mg/kg/day, day 14 to 28, FIG. 5",improved the accumulation of collagen
same,P-STAT3,[1]; [3],decreased
same,amount of fibronectin,[1]; [3],decreased
same,expression level of E-cadherin,[1]; [3],increased
same,decrease of hydroxyproline (Hyp) content compared with the BLM group,"[1]; lung tissue, 7.5 mg/kg/day, day 14 to 28, FIG. 4",about 22%
same,compound-induced apoptosis after SHP-1 knockout,"[2]; NIH3T3, SHP-1 siRNA, FIG. 7D",offset by SHP-1 knockout
same,apoptosis of fibrotic cells,"[2]; NIH3T3, FIG. 7C",induced apoptosis
